Results taken from patent US20250320254A1, “Compositions and Methods for Modulating Circulating Factors” (Flagship Pioneering Innovations VII, LLC, priority 2022, published 2025).
No end group written: not given here.

system: human primary hepatocytes; test: LDL uptake assay (BODIPY-labelled LDL, high content imaging); assay type: cell-based; conditions: 5 uM concentration, 4 h
Protocol: The effects of putative cholesterol lowering peptides was assessed using LDL uptake assays in primary human hepatocytes from a pool of 10 healthy donors. Hepatocytes were treated with peptides as well as LDL-labelled BODIPY for 4 h. Cells were then fixed, permeabilized and imaged on an Opera Phenix high content imaging platform. LDL uptake was determined using BODIPY stain intensity.
Human primary hepatocytes were seeded into 96-well PhenoVue plates at 37K/well density and recovered overnight. The next say, hepatocytes were treated with 5 uM peptide or null control (DMSO) as well as a BODIPY-labelled LDL (Invitrogen™ Image-iT™ Low Density Lipoprotein Uptake Kit, Bodipy FL, I34359). This assay is designed to specifically detect binding and uptake of LDL through the LDL receptor internalization pathway, allowing maximum control and flexibility in experimental design. Two controls were built into the system, unlabeled LDL and heparin. Unlabeled LDL provides an optional pre-treatment to occlude cell surface receptors in advance of probing with the labeled construct, while heparin is provided as an additional control to chelate the LDL in the solution phase outside of the cells, thus preventing binding and uptake of the labeled LDL. Metformin, a type 2 diabetes drug with cholesterol lowering effects, was used as a positive control for increased LDL uptake (FIG. 1). Following peptide, control, and LDL-BODIPY treatment, cells were incubated for 4 h in a 37 C incubator with 5% CO2. Following incubation, cells were fixed with 4% paraformaldehyde for 15 min. Cells were then permeabilized and stained with DAPI to visualize nuclei. Wells were then washed with HBSS and imaged using a Perkin Elmer Opera Phenix high content imaging platform (fluorescence) at 20× magnification with 9 fields per well. BODIPY spot intensity was quantified using the Harmony image analysis software.

Sequence	LDL uptake in hepatocytes
MMLPLWTFLERAMLLLISEVANRFKWSNGYTWKMPKA [SEQ ID NO: 36277]	increasing LDL uptake
LVVRWAVLVFRSSTAALPRAAEAARRSEKWPKTSALGRRS [SEQ ID NO: 26888]	increasing LDL uptake
MTAAVSLTRSPAISASCAASRSASPWAWPWTWF [SEQ ID NO: 75353]	increasing LDL uptake
